Positions count from the first letter of the chain named.
What was measured:
[1] = target: T1, S1P4 (Homo sapiens, UniProt O95977, E122Q); experiment: […]GTPγS binding assay at a single […] concentration (weak agonist); assay type: cell-based; settings: read-out: % stimulation over basal at 10 μM
T1 construct: gene S1PR4; HA-S1P4(E3.29(122)Q)-Gαi1(C351I) fusion in CHO-K1 membranes, pertussis toxin treated; with Gαi1(C351I) (fused)
T1 sequence (O95977 1-384 E122Q): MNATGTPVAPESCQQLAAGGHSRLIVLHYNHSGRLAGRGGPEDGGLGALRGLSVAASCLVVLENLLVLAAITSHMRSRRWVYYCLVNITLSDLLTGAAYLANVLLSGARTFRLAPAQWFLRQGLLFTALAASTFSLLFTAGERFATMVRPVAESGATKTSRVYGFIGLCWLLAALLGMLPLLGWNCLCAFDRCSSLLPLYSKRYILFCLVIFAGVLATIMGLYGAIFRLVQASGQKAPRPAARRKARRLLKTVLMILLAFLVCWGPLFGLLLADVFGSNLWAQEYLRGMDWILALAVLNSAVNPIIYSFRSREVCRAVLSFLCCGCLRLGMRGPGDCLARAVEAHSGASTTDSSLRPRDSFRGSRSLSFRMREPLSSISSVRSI

[2] = target: T2, S1P4 (Homo sapiens, UniProt O95977); experiment: […]GTPγS binding assay, CHO-K1 membranes; assay type: biochemical
T2 construct: gene S1PR4
T2 sequence (O95977 1-384): T1 sequence (O95977 1-384 E122Q) with Q122E

activation at 10 µM [1] | Compound | EC50 [2]
~19% | CCCCCCCCCCCCCCCC(=O)OC[C@@H](O)COP(=O)(O)O [16:0 LPA] | –
– | CCCCCCCCCCCCC/C=C/[C@@H](O)[C@@H](N)COP(=O)(O)O [S1P, Sphingosine-1-phosphate] | 355 ± 155 nM
